What all share (format): in vivo
The test system of series [1] is SW620 (CCL-227, ATCC) MSS colorectal carcinoma xenografts. Put plainly: SW620 MSS CRC xenograft efficacy in nude mice. To be noted: SW620; TMZ p.o. 5 consecutive days within 21 days cycle (100 mg/kg). Here is the method:
SW620 (CCL-227, ATCC) [MSS colorectal carcinoma (CRC)] was cultured in DMEM (#1-26F01-I, AMIMED) supplemented with 10% FCS (#2-0-1F30-I, BioConcept), 4 mM L-glutamine (#5-10K50-H, BioConcept) and 1 mM Sodium pyruvate (#5-60F00-H, BioConcept). Cells were passaged by washing first with Dulbecco's PBS without Ca^2+/Mg^2+ (#3-05F29-1, AMIMED), trypsinising cells with Trypsin 0.05% in PBS with EDTA (#5-51F00-H, AMIMED), centrifuging in the respective culture media, and splitting cells into fresh media at a ratio of 1:8, 2 times per week.
Athymic nude mice (Charles River, Germany) were allowed to adapt for 7 days upon arrival at the animal facility and housed in a pathogen-controlled environment (5 mice/Type III cage) with access to food and water ad libitum. Animals were identified with transponders. Studies described in this report were performed according to procedures covered by a permit number issued by the Kantonales Veterinäramt Basel-Stadt.
Subcutaneous tumors were initiated by injecting 5.0×10^6 SW620 tumor cells in 50% Matrigel (#354234, Corning) in HBSS (#H6648, SIGMA) in the right flank of nude mice. The efficacy experiment (n=6), started 11 days post-cell injection.
Compound A and Temozolomide were made-up fresh on a weekly basis and kept at 4° C. and protected from light. Compound A was dissolved in 20% Hydroxypropyl-ß-Cyclodextrine (HP-ß-CD, #H107-100G, SIGMA) in UltraPure™ Water (#10977-035, Invitrogen) and administered p.o. at 10 ml/kg. Temozolomide was dissolved in 30% PEG-400 (#202398-500G, SIGMA) and 70% Dulbecco's PBS without Ca^2+/Mg^2+ (#3-05F29-1, AMIMED) and administered p.o. at 10 mL/kg on 5 consecutive days within a 21 days cycle. Irinotecan was made-up fresh for each treatment once a week by diluting with NaCl 0.9% (#3-06S00-I, BioConcept). The solution was administered i.v. at 5 mL/kg.
(§1) Tumor volumes (TVol), determined from caliper measurements (using the formula I*w2*π/6) were measured two times per week. Tumor response was quantified by the change in tumor volume (endpoint minus starting value in mm^3) as the T/C (the ratio between the tumor volume in the treated group and in the untreated control group). In the case of a tumor regression or to assess the percentage of change in TVol, the tumor response was quantified by the percentage of regression of the starting TVol. The body-weight (BW) of the animal was measured three times per week allowing calculation at any particular time-point relative to the day of initiation of treatment (day 0) of the percentage change in BW (4% BW).
At day 43 post-cell injection, irinotecan was administered intravenously at 15 mg/kg once weekly for 7 weeks in combination with Compound A, also administered from day 43, orally at 120 mg/kg daily for 52 days.
Starting 11 days post-cell injection, temozolomide was administered orally on a 21 day cycle of 5 consecutive days at 100 mg/kg on 5 consecutive days (day 11 to day 15 and day 32 to day 36). At day 43 post-cell injection, to the first group irinotecan was administered intravenously at 15 mg/kg once weekly for 6 weeks, and to the second group irinotecan was administered intravenously at 15 mg/kg once weekly for 6 weeks in combination with Compound A, also administered from day 43, orally at 120 mg/kg daily for 46 days.

Series [2] has as its system SHP-77 (CRL-2195, ATCC) MSS small cell lung carcinoma xenografts. Put plainly: SHP-77 MSS SCLC xenograft efficacy in nude mice. To be noted: SHP77; TMZ 25 mg/kg p.o. 5 consecutive days within 28 days cycle. Here is the method: SHP-77 (CRL-2195, ATCC) is a MSS small cell lung carcinoma (SCLC). It was cultured in RPMI 1640 Medium, GlutaMAX™ (#61870036, GIBCO) supplemented with 10% FCS (#2-O-1F30-I, BioConcept). Cells were passaged by washing first with Dulbecco's PBS without Ca^2+/Mg^2+ (#3-05F29-1, AMIMED), trypsinising cells with Trypsin 0.05% in PBS with EDTA (#5-51F00-H, AMIMED), centrifuging in the respective culture media, and splitting cells into fresh media at a ratio of 1:8, 2 times per week.
Athymic nude mice (Charles River, Germany) were allowed to adapt for 7 days upon arrival at the animal facility and housed in a pathogen-controlled environment (5 mice/Type III cage) with access to food and water ad libitum. Animals were identified with transponders. […]
as §1, with “I*w2*TT/6)” for “I*w2*π/6)”, “T/C.” for “T/C (the ratio between the tumor volume in the treated group and in the untreated control group).”

A short description of series [3]: Body weight / tolerability in T84 tumor-bearing nude mice. Particulars: T84 study; 28-days TMZ cycle. On the procedure:
as §1, with “I*w2*TT/6)” for “I*w2*π/6)”, “T/C.” for “T/C (the ratio between the tumor volume in the treated group and in the untreated control group).”

A short description of series [4]: Body weight / tolerability in SHP-77 tumor-bearing nude mice. Particulars: SHP-77 study; single agent. On the procedure: as §1, with “I*w2*TT/6)” for “I*w2*π/6)”, “T/C.” for “T/C (the ratio between the tumor volume in the treated group and in the untreated control group).”
Series [5] can be described thus: Body weight / tolerability in SW620 tumor-bearing nude mice. To be noted: SW620 study; 21-days TMZ cycle. Here is the method:
as §1

Values joined by “and” are separate entries in the source; they are usually repeats but may differ in a detail not shown here. Equal entries are not always repeated.

Consider `Cn1nnc2c(C(N)=O)ncn2c1=O` [temozolomide], for which, in series [1], the “tumor regression after 1 cycle of temozolomide” value is 30-50% and 40%. The “tumor regression after 2 cycles” value in series [2] was 90%. The body weight change result is recorded as “slight body weight loss but mice always recovered at the end of the 28-days cycle” in series [3] and “dose-dependent body weight loss but mice always recovered at the end of the 21-days cycle” in series [5]. Besides, the tolerability entry in series [4] is “well tolerated”.

For the origin of these results see patent US20240197715A1, “PHARMACEUTICAL COMBINATIONS AND USES THEREOF” (NOVARTIS AG, priority 2022, published 2024).
